Assay results from patent US8252832B2, “Kinesin inhibitors as cancer therapeutics” (Novartis AG, priority 2007, dated 2012).
Marks after values point to notes of the source that are not given here.

How the values were obtained:
Assay type in all cases: in vivo, mouse
[1] = HCT116 tumor xenograft model, host response (body weight, survival, neutrophils); details: i.v., q4d × 3
Method: (§1) The cell line HCT-116 has been widely used in the evaluation of mitotic inhibitors such as microtubule disruptors, mitotic kinase inhibitors and KSP inhibitors. A multi-dose efficacy study on a four times per day for three days (q4d×3) dosing schedule was performed. Experiments were performed using outbred athymic nu/nu mice approximately 6-8 weeks old (Charles River Laboratories, Hollister, Calif.). […] Mice were housed 4-5 animals per cage in clear polycarbonate micro-isolator cages with a 12-hour light, 12-hour dark cycle at temperatures between 70-80 degrees Fahrenheit and 30-70% relative humidity. Food (Purina rodent chow pellets) and water were provided ad libitum. Mice were handled in accordance with Novartis ACUC regulations and guidelines and the ILAR Guide for the Care and Use of Laboratory Animals. Experiments were performed in an AAALAC accredited facility under an ACUC approved protocol.
(§2) Compound IIa (free base) and SB-715992 (ispinesib, a KSP inhibitor by Cytokinetics that is in clinical trials; as its free base) were formulated in 20% Captisol® for all the above doses for a dose volume of 8 mL/kg. Doses were adjusted to each animal's body weight.
(§3) Female nu/nu mice (Charles River, Hollister, Calif.) were injected subcutaneously in the right flank with 5 million HCT-116 tumor cells suspended in Hank's Balanced Salt Solution (HBSS) in a total volume of 0.1 mL/mouse. For the efficacy studies, mice were randomized 10 days post-implant. […] Tumor volume was calculated as (L×W2)/2. […] Percent treatment/control (T/C) values were calculated using the following formula: % T/C=100×ΔT/ΔC
Since a dose as low as 1.25 mg/kg on a q4d×3 schedule induced regression of HCT116 xenografts, the efficacy study was repeated with a range of doses from 2 to 0.125 mg/kg to observe a dose response and determine how low a dose can be given to induce tumor regression. […] Only the 7.5 mg/kg dose of SB-715992 induced tumors to regress. Additionally, 72 hrs after the last dose, blood was collected to compare the circulating neutrophil levels among groups. Neutrophils were reduced in a dose responsive manner, similar to the tumor efficacy effect.

HCT116 tumor xenograft = HCT116 tumor xenograft model, tumor response; details: for T/C, Day 24 (%) / Δ Tumor volume, Day 24 / Max. % Regression (Day) / Δ Tumor volume, Day 17: i.v.
Method: as §1, with “A multi-dose efficacy study on a four times per day for three days (q4d×3) dosing schedule was performed.” left out
as §2
Human HCT116 colon carcinoma cells were obtained from the National Cancer Institute's DCTD Tumor Repository (catalog #NCI-502568, Rockville, Md.) and tested to be free of Mycoplasma sp. and murine viruses in the IMPACT1 PCR assay panel (RADIL, University of Missouri, Columbia, Mo.). HCT116 cells were grown in RPMI 1640 with 2 mM L-glutamine (Mediatech Inc., catalog #15-040-CV) supplemented with 10% fetal bovine serum (JRH Biosciences, catalog #12003-1000M). These cells were grown as adherent cultures, maintained at 37° C. in a humidified atmosphere containing 5% carbon dioxide. Cells were cultured for fewer than 10 passages prior to use. Cells were harvested at 95% confluency, and centrifuged at ˜800×g for 5 minutes at 4° C. and then resuspended in a cold HBSS (Mediatech Inc., catalog #21-021-CV) at a concentration of 50 million cells/mL for implantation subcutaneously (injection volume of 0.1 mL).
as §3
All data were expressed as mean and SEM. Between-groups comparisons for final tumor measurements were performed using the one-way ANOVA pair-wise analysis. Significance was determined using Kruskal-Wallis one-way ANOVA on Ranks and Dunn's method for multiple pair-wise comparisons. Statistical analysis was carried out using SigmaStat (Systat Software Inc., San Jose, Calif.).

[2] = test system: human multiple myeloma KMS-11-luc tumor xenografts; assay: Subcutaneous KMS-11-luc tumor xenograft model, tumor response; details: Q4d × 3, i.v
Method: Experiments were performed using immunodeficient SCID-Beige female mice approximately 7-8 weeks old (Charles River Laboratories, Wilmington, Mass.). […] Routine animal care and assurance of welfare were as described above.
Human KMS-11-luc multiple myeloma cells were obtained from the laboratory of Suzanne Trudel at the University of Toronto (Ontario, Canada) and tested to be free of Mycoplasma sp. and murine viruses in the IMPACT1 PCR assay panel (RADIL, University of Missouri, Columbia, Mo.). Prior to our receiving this cell line, it had been stably engineered to express luciferase by retroviral transfection of the pGC-gfp/luc vector. KMS-11-luc cells were grown in Iscove's medium supplemented with 2 mmol/L L-glutamine (Mediatech, Inc., Hemdon, Va.) and 10% fetal bovine serum (JRH Biosciences, catalog #12003-1000M). These cells were grown as suspension cultures, maintained at 37° C. in a humidified atmosphere containing 5% carbon dioxide. Cells were cultured for fewer than 10 passages prior to use. Cells were harvested at approximately 2 million cells/mL, and centrifuged at ˜800×g for 5 minutes at 4° C. and then resuspended in a 1:1 mixture of cold Hank's balanced salt solution (HBSS) and Matrigel™ (Mediatech Inc., catalog #21-021-CV; BD Biosciences, catalog #354234, respectively) at a concentration of 50 million cells/mL for implantation subcutaneously (injection volume of 0.2 mL). Alternatively, for the disseminated disease model, cells were prepared only in cold HBSS at a concentration of 100 million cells/mL for intravenous (i.v.) implantation via the tail vein (injection volume of 0.1 mL).
Compound IIa and SB-715992 (free base) were formulated in 20% Captisol for a dose volume of 8 mL/kg. Doses were adjusted to each animal's body weight.
For the efficacy evaluation in the subcutaneous tumor model, 10 million cells combined in a 1:1 mixture of HBSS and Matrigel™ were injected subcutaneously in the right flank in a total volume of […]. […] Tumor volume was calculated as (L×W2)/2. […] Data analysis was as described above.

CC(C)(C)[C@H](c1nc(-c2cc(F)ccc2F)cn1Cc1ccccc1)N(CC[C@H](N)CF)C(=O)CO [Compound IIa]
Survival (alive/total) ([1]; 0.125 mg/kg): 9/9
Survival (alive/total) ([1]; 0.25 mg/kg): 9/9
Survival (alive/total) ([1]; 0.5 mg/kg): 9/9
Survival (alive/total) ([1]; 1 mg/kg): 9/9
Survival (alive/total) ([1]; 1.25 mg/kg): 9/9
Survival (alive/total) ([1]; 2 mg/kg, (body weight loss)): 8/9 (body
Survival (alive/total) ([1]; 2.5 mg/kg): 9/9
Survival (alive/total) ([1]; 5 mg/kg, (body weight loss)): 8/9 (body
T/C, Day 24 (%) (HCT116 tumor xenograft; 0.125 mg/kg, q4d × 3): 81%
Δ Tumor volume, Day 24 (HCT116 tumor xenograft; 0.125 mg/kg, q4d × 3): 809 ± 193 mm^3
anti-tumor effect (HCT116 tumor xenograft; 0.125 mg/kg, q4d×3): not significantly different from vehicle control
T/C, Day 24 (%) (HCT116 tumor xenograft; 0.25 mg/kg, q4d × 3): 35%
Δ Tumor volume, Day 24 (HCT116 tumor xenograft; 0.25 mg/kg, q4d × 3): 382 ± 120 mm^3
T/C, Day 24 (%) (HCT116 tumor xenograft; 0.5 mg/kg, q4d × 3): 14%
Δ Tumor volume, Day 24 (HCT116 tumor xenograft; 0.5 mg/kg, q4d × 3): 155 ± 145 mm^3
Max. % Regression (Day) (HCT116 tumor xenograft; 0.5 mg/kg, q4d × 3, D14): 8%
Δ Tumor volume, Day 24 (HCT116 tumor xenograft; 1 mg/kg, q4d × 3): −34 ± 36 mm^3
Max. % Regression (Day) (HCT116 tumor xenograft; 1 mg/kg, q4d × 3, D17): 46%
Δ Tumor volume, Day 17 (HCT116 tumor xenograft; 1.25 mg/kg, q4d × 3): −173 ± 12 mm^3
Max. % Regression (Day) (HCT116 tumor xenograft; 1.25 mg/kg, q4d × 3, D20): 66%
Δ Tumor volume, Day 24 (HCT116 tumor xenograft; 2 mg/kg, q4d × 3): −141 ± 48 mm^3
Max. % Regression (Day) (HCT116 tumor xenograft; 2 mg/kg, q4d × 3, D21): 73%
Δ Tumor volume, Day 17 (HCT116 tumor xenograft; 2.5 mg/kg, q4d × 3): −208 ± 17 mm^3
Max. % Regression (Day) (HCT116 tumor xenograft; 2.5 mg/kg, q4d × 3, D20): 82%
Δ Tumor volume, Day 17 (HCT116 tumor xenograft; 5 mg/kg, q4d × 3 (only first two doses given)): −196 ± 11 mm^3
Max. % Regression (Day) (HCT116 tumor xenograft; 5 mg/kg, q4d × 3 (only first two doses given), D20): 73%
anti-tumor effect (HCT116 tumor xenograft; as low as 0.25 mg/kg, q4d×3, during the dosing interval): tumor stasis
T/C, Day 31 (%) ([2]; 0.25 mg/kg): 25%
Δ Tumor volume, Day 31 ([2]; 0.25 mg/kg): 527 ± 152 mm^3
Max. % Regression (Day) ([2]; 0.25 mg/kg, D7): 24 (D7) %
T/C, Day 31 (%) ([2]; 0.5 mg/kg): 10%
Δ Tumor volume, Day 31 ([2]; 0.5 mg/kg): 221 ± 71 mm^3
Max. % Regression (Day) ([2]; 0.5 mg/kg, D10): 42 (D10) %
T/C, Day 31 (%) ([2]; 1 mg/kg): 0.1* %
Δ Tumor volume, Day 31 ([2]; 1 mg/kg): 1.5 ± 26 mm^3
Max. % Regression (Day) ([2]; 1 mg/kg, D17, listed as COMPOUND IIa): 56 (D17) %
Max. % Regression (Day) ([2]; 1 mg/kg, D17, listed as compound IIa): 56%
